Here are results for 16 compounds from US20130289071A1, “TETRAZOLYL-TETRAHYDROPYRIDINE COMPOUNDS FOR INFLAMMATION AND IMMUNE-RELATED USES” (Synta Pharmaceuticals Corp., priority 2010, published 2013).

For one test, the system named is IL-2 production. Description: Inhibition of IL-2 production (Jurkat/PHA/1% FBS, ELISA). Type of test: cell-based. The following applies: Homo sapiens, Jurkat, 20 h, Jurkat cells, PHA 2.5 μg/mL. How it is done:
JurkaT-cells were placed in a 96 well plate (0.5 million cells per well in 1% FBS medium), and then a test compound of this invention was added at different concentrations. After 10 minutes, the cells were activated with PHA (final concentration 2.5 μg/mL) and incubated for 20 hours at 37° C. under 5% CO2. The final volume was 200 μL. Following incubation, the cells were centrifuged, and the supernatants collected and stored at −70° C. prior to assaying for IL-2 production. A commercial ELISA kit (IL-2 Eli-pair, Diaclone Research, Besancon, France) was used to detect production of IL-2, from which dose response curves were obtained. The IC50 value was calculated as the concentration at which 50% of maximum IL-2 production after stimulation was inhibited versus a non-stimulation control.

Test [1] concerns the target T1, CRAC ion channels (ICRAC current), RBL-2H3 cells (Rattus norvegicus, UniProt Q5M848).
T1 construct: endogenous in cells; host or cells: RBL-2H3 (rat basophilic leukemia) cells
In words: Automated patch clamp (Qpatch) inhibition of ICRAC current in RBL-2H3 cells. In kind it is cell-based. The following applies: 100 nM compound, % ICRAC inhibition. The method, then: Automated patch clamp experiments are conducted with the QPatch 16 (Sophion Bioscience, Ballerup, Denmark) at room temperature (21-25° C.). Immediately following the establishment of giga-seal whole-cell configuration, the cells membrane potential is clamped at 0 mV. Voltage ramps of 50 ms duration spanning the voltage range of −100 to +100 mV are then stimulated at a rate of 0.33 Hz. Currents are filtered at 2.9 kHz and digitized at 200 μs intervals. Capacitive currents and series resistance are determined and corrected before each voltage ramp using the automatic capacitance compensation.
RBL-2H3 are grown in DMEM media supplemented with 10% fetal bovine serum, penicillin 100 U/ml and streptomycin […] in an atmosphere of 95% air/5% CO2. Cells are grown to confluence in 175 cm^2 tissue culture flask. On the experimental day, cells harvested with 0.25% trypsin/0.02% EDTA and resuspended in extracellular solution at density of 5×10^6 cells/ml.
The intracellular solution contains Cs-Glutamate 90 mM; NaCl 8 mM; MgCl2 3 mM; CsCl 20 mM; CsBAPTA 20 mM; HEPES 10 mM; InsP3 0.02 mM; pH=7.2 adjusted with CsOH.
The extracellular solution contains NMDGCl 120 mM; KCl 5.4 mM; CsCl 10 mM; CaCl2 10 mM; MgCl2 1 mM; HEPES 10 mM; Glucose 5.5 mM; at pH=7.4 adjusted with HCl.
ICRAC currents are measured using 50 msec voltage ramps between −100 mV to +100 mV. The voltage ramps are stimulated every 3 seconds for at least 570 seconds. The maximum ICRAC current is allowed to develop for at least 135 seconds. Compounds diluted in extracellular solutions are then applied twice, 30 seconds apart. After incubating the cells with compound for 435 seconds, a reference solution is applied at the end of the experiment. The reference solution is a Ca^2+ free extracellular solution.
Off-line analysis with the Qpatch software is used to plot the current value at −80 mV for each ramp trace against time. The resulting current versus time data is then exported into a Microsoft Excel spreadsheet. The ICRAC membrane currents are separated from the cells basal background currents by either subtracting out the average membrane current values during the first 1-3 traces, or the average membrane current values obtained with the reference solution at the end of the experiment. The % ICRAC inhibition in each cell is calculated by comparing the amount of current just prior to the first compound addition to the amount of current after the cells has been perfused with the compound for at least 400 seconds.
(In patch-clamp work, channel activity is measured electrically.)

T1 sequence (Q5M848 whole entry): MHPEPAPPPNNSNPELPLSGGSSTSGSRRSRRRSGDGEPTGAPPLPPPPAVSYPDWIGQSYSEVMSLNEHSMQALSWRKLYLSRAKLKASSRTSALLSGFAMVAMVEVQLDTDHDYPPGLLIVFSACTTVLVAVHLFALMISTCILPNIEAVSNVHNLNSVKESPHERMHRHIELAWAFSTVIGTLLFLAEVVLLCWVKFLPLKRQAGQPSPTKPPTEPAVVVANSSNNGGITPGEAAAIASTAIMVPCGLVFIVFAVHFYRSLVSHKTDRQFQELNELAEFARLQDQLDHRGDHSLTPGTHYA

As to `CC1=C(c2ccc(NC(=O)c3c(F)cccc3F)cc2)CN(c2nnn(C)n2)CC1` [Compound 11], the IC50 in the test on IL-2 production is 17 nM. In test [1], this compound registered an inhibition at 0.1 µM of 53%.
For `Cn1nnc(N2CCC(C3CC3)=C(c3cnc(NC(=O)c4c(F)cccc4F)cn3)C2)n1` [Compound 40], in that order: 53 nM and 54%.
In the test on IL-2 production, `Cn1nnc(N2CCC(C3CC3)=C(c3cnc(NC(=O)c4cccc(F)c4F)cn3)C2)n1` [Compound 39] registered a 50% inhibitory concentration (IC50) of 51 nM. Further, in test [1], the inhibition at 0.1 µM is 69%.
For `CC1=C(c2ccc(NC(=O)c3ccncc3F)cc2)CN(c2nnn(C)n2)CC1` [Compound 26], in that order: 37 nM and 69%.
For `CC1=C(c2cnc(NC(=O)c3cccc(F)c3F)cn2)CN(c2nnn(C)n2)CC1` [Compound 37], in that order: 50 nM and 61%.
`CCc1c(F)cncc1C(=O)Nc1ccc(C2=C(C)CCN(c3nnn(C)n3)C2)cc1` [Compound 10] had a concentration for half-maximal inhibition (IC50) in the test on IL-2 production of 16 nM. In test [1], this compound returned an inhibition at 0.1 µM of 87%.
For `CC1=C(c2cnc(NC(=O)c3cc(F)ccc3Cl)cn2)CN(c2nnn(C)n2)CC1` [Compound 56], in that order: 99 nM and 84%.
On the same counts, the results for `CC1=C(c2cnc(NC(=O)c3cccc(F)c3C)cn2)CN(c2nnn(C)n2)CC1` [Compound 61] are 116 nM and 64%.
For `CC1=C(c2ccc(NC(=O)c3ccncc3C)cc2)CN(c2nnn(C)n2)CC1` [Compound 46], in that order: 60 nM and 54%.
The compound `CC1=C(c2ccc(NC(=O)c3cccc(F)c3C)cc2)CN(c2nnn(C)n2)CC1` [Compound 38] yielded an IC50 with IL-2 production of 51 nM. In test [1], this compound gave an inhibition at 0.1 µM of 48%.
For `CCn1nnc(N2CCC(C)=C(c3ccc(NC(=O)c4cncc(F)c4C)cc3)C2)n1` [Compound 27], in that order: 37 nM and 68%.
On the same counts, the results for `CC1=C(c2ccc(NC(=O)c3cccc(F)c3F)cc2)CN(c2nnn(C)n2)CC1` [Compound 14] are 18 nM and 74%.
For the compound `CC1=C(c2cnc(NC(=O)c3ccccc3F)cn2)CN(c2nnn(C)n2)CC1` [Compound 54], the midpoint of inhibition in the test on IL-2 production, the IC50, lay at 92 nM. Moreover, in test [1], the inhibition at 0.1 µM was 77%.
On the same counts, the results for `Cn1nnc(N2CCC(C3CC3)=C(c3ccc(NC(=O)c4c(F)cccc4F)cc3)C2)n1` [Compound 9] are 15 nM and 67%.
`CC1=C(c2ccc(C(=O)Nc3c(F)cccc3F)cc2)CN(c2nnn(C)n2)CC1` [Compound 41]: the midpoint of inhibition with IL-2 production, the IC50, lay at 54 nM. Further, 0.1 µM produced 60% inhibition in test [1].
For the compound `Cc1ccncc1C(=O)Nc1ccc(C2=C(Cl)CCN(c3nnn(C)n3)C2)cc1` [Compound 45], the IC50 in the test with IL-2 production was 59 nM. The same compound displayed an inhibition at 0.1 µM in test [1] of 60%.

As a reminder, the IC50 is the midpoint of a concentration-inhibition curve. A lower IC50 goes with inhibition by little substance. Broadly, the inhibition is the change of the read-out against control, counted positive when it falls. Higher therefore signals a response far below the control.
